≈ marks a conversion by molar mass, not a printed value. Read-outs that look alike come from different tables or passages of the source.
Columns and labels:
[1] = target: T1, PBP3 from Escherichia coli (K-12) (Escherichia coli, UniProt P0AD68); experiment: Bocillin-FL fluorescence polarization competition binding, E. coli PBP3
T1 construct: made in house
Procedure, shortened: (§1)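 Purified PBPs pre-incubated with inhibitor (E. coli PBP3 1.5 μM, 30 min; P. aeruginosa PBP3 0.75 μM, A. baumannii PBP1a 1 μM and PBP3 0.2 μM, 15 min), then Bocillin-FL 0.1 μM (0.05 μM for PBP1a) added; FP read up to 60 min. EC50 = concentration halving bound Bocillin-FL.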

[2] = target: T2, PBP3 from Pseudomonas aeruginosa (PAO1) (Pseudomonas aeruginosa, UniProt G3XD46); experiment: Bocillin-FL fluorescence polarization competition binding, P. aeruginosa PBP3; conditions: Binding affinity to P. aeruginosa PBP3; fluorescence polarization competition binding assay using Bocillin-FL; read-out: P. aeruginosa PBP3 Potency
T2 construct: made in house
Procedure, shortened: as §1

[3] = test system: P. aeruginosa CDC-0054; experiment: microbe, parasite or virus in culture; assay type: cell-based; conditions: Pseudomonas aeruginosa, CDC0054, read-out: Minimum inhibitory concentration, P. aeruginosa CDC-0054
[4] = test system: P. aeruginosa CDC-0095; experiment: microbe, parasite or virus in culture; assay type: cell-based; conditions: Pseudomonas aeruginosa, CDC0095, read-out: Minimum inhibitory concentration, P. aeruginosa CDC-0095
[5] = test system: A. baumannii CDC-0033; experiment: microbe, parasite or virus in culture; assay type: cell-based; conditions: Acinetobacter baumannii, CDC0033, read-out: MIC, A. baumannii CDC-0033
[6] = test system: N. gonorrhoeae ATCC 49226; experiment: Liquid broth MIC in Fastidious broth; conditions: Neisseria gonorrhoeae
[7] = test system: N. gonorrhoeae FA1090; experiment: Liquid broth MIC in Fastidious broth; conditions: Neisseria gonorrhoeae
[8] = test system: N. gonorrhoeae MS11; experiment: Liquid broth MIC in Fastidious broth; conditions: Neisseria gonorrhoeae
[9] = test system: N. gonorrhoeae WHO G; experiment: Liquid broth MIC in Fastidious broth; conditions: Neisseria gonorrhoeae
[10] = test system: N. gonorrhoeae WHO M; experiment: Liquid broth MIC in Fastidious broth; conditions: Neisseria gonorrhoeae
[11] = test system: N. gonorrhoeae WHO K; experiment: Liquid broth MIC in Fastidious broth; conditions: Neisseria gonorrhoeae
[12] = test system: N. gonorrhoeae WHO Z; experiment: Liquid broth MIC in Fastidious broth; conditions: Neisseria gonorrhoeae
[13] = ATCC49226, read-out: Minimum Inhibitory Concentration, ATCC 49226
[14] = FA1090, read-out: Minimum Inhibitory Concentration, FA 1090
[15] = MS11, read-out: Minimum Inhibitory Concentration, MS11
[16] = read-out: Minimum Inhibitory Concentration, WHO G
[17] = read-out: Minimum Inhibitory Concentration, WHO M
[18] = read-out: Minimum Inhibitory Concentration, WHO K
[19] = read-out: Minimum Inhibitory Concentration, WHO Z
[20] = ATCC49226, read-out: Minimum Inhibitory Concentration (MIC), N. gonorrhoeae ATCC 49226
[21] = FA1090, read-out: Minimum Inhibitory Concentration (MIC), N. gonorrhoeae FA 1090
[22] = MS11, read-out: Minimum Inhibitory Concentration (MIC), N. gonorrhoeae MS11
[23] = read-out: Minimum Inhibitory Concentration (MIC), N. gonorrhoeae WHO G
[24] = read-out: Minimum Inhibitory Concentration (MIC), N. gonorrhoeae WHO M
[25] = read-out: Minimum Inhibitory Concentration (MIC), N. gonorrhoeae WHO K
[26] = read-out: Minimum Inhibitory Concentration (MIC), N. gonorrhoeae WHO Z

T1 sequence (P0AD68 1-577): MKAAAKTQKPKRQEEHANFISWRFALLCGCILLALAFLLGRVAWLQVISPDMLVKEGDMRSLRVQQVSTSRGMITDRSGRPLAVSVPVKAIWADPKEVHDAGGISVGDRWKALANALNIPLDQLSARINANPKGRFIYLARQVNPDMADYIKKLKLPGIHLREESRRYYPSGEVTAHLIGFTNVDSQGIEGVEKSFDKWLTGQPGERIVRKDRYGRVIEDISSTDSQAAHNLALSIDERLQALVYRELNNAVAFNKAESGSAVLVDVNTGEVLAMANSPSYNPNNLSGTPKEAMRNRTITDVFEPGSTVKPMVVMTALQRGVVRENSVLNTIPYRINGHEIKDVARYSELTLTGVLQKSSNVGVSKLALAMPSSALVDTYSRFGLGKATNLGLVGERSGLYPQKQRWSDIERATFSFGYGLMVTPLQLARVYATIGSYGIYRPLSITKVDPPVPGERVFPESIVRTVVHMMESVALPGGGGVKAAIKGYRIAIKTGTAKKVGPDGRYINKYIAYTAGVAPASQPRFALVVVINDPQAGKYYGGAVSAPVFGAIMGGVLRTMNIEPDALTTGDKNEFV
T2 sequence (G3XD46 whole entry): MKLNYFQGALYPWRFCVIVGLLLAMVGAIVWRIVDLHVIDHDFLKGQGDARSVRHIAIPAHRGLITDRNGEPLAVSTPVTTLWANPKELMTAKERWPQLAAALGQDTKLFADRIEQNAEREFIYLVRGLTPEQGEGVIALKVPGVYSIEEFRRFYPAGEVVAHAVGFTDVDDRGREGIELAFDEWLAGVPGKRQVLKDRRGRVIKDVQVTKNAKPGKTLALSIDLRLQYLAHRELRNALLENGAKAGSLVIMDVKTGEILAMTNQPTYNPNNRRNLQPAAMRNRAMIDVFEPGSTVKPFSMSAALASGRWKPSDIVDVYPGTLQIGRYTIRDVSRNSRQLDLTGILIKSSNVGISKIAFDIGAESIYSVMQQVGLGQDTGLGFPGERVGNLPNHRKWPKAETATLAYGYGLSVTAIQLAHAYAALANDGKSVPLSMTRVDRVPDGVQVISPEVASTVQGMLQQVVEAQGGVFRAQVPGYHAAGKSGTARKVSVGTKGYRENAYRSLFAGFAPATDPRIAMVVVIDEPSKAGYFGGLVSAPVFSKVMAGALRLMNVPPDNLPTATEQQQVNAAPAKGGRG

With `O=C(NCCS(=O)(=O)N1CCN(C(=O)NC(C(=O)N[C@H]2Cc3ccc(F)c(C(=O)O)c3OB2O)c2cc(F)c(O)c(O)c2Cl)C1=O)c1cccnc1` (stereo partly drawn) [Example 262, (3R)-3-(2-(2-chloro-5-fluoro-3,4-dihydroxyphenyl)-2-(3-((2-(nicotinamido)ethyl)sulfonyl)-2-oxoimidazolidine-1-carboxamido)acetamido)-7-fluoro-2-hydroxy-3,4-dihydro-2H-benzo[e][1,2]oxaborinine-8-carboxylic acid] the EC50 [1] was less than 10 µM, the IC50 [2] was less than 10 µM and the MIC [3] was 2 to 4 µg/mL (≈ 2.61 to 5.22 µM). The MIC [4] was 2 to 4 µg/mL (≈ 2.61 to 5.22 µM), the MIC [5] was 2 to 4 µg/mL (≈ 2.61 to 5.22 µM) and the MIC [6, 13] was 16 to 32 µg/mL (≈ 20.9 to 41.7 µM). For the same compound, the MIC [7, 14] was 4 to 8 µg/mL (≈ 5.22 to 10.4 µM), the MIC [8, 15] was 16 to 32 µg/mL (≈ 20.9 to 41.7 µM) and the MIC [9, 16] was 16 to 32 µg/mL (≈ 20.9 to 41.7 µM). It also gave an MIC [10, 17] of 16 to 32 µg/mL (≈ 20.9 to 41.7 µM), an MIC [11, 18] greater than 64 µg/mL and an MIC [12, 19] of 16 to 32 µg/mL (≈ 20.9 to 41.7 µM).

`O=C(NCCCN1CCN(C(=O)NC(C(=O)N[C@H]2Cc3ccc(F)c(C(=O)O)c3OB2O)c2cc(F)c(O)c(O)c2Cl)C(=O)C1=O)c1ccccc1` (stereo partly drawn) [Example 202, (3R)-3-(2-(4-(3-benzamidopropyl)-2,3-dioxopiperazine-1-carboxamido)-2-(2-chloro-5-fluoro-3,4-dihydroxyphenyl)acetamido)-7-fluoro-2-hydroxy-3,4-dihydro-2H-benzo[e][1,2]oxaborinine-8-carboxylic acid] gave an EC50 [1] of less than 10 µM, an IC50 [2] of less than 10 µM and an MIC [3] of less than 1 µg/mL. For the same compound, the MIC [4] was 2 to 4 µg/mL (≈ 2.69 to 5.38 µM), the MIC [5] was 8 to 16 µg/mL (≈ 10.8 to 21.5 µM) and the MIC [6, 20] was 16 to 32 µg/mL (≈ 21.5 to 43 µM). The MIC [7, 21] was 4 to 8 µg/mL (≈ 5.38 to 10.8 µM), the MIC [8, 22] was 16 to 32 µg/mL (≈ 21.5 to 43 µM) and the MIC [9, 23] was 16 to 32 µg/mL (≈ 21.5 to 43 µM). For the same compound, the MIC [10, 24] was 16 to 32 µg/mL (≈ 21.5 to 43 µM), the MIC [11, 25] was greater than 64 µg/mL and the MIC [12, 26] was greater than 64 µg/mL.

Compound `O=C(NCCS(=O)(=O)N1CCN(C(=O)N[C@@H](C(=O)N[C@H]2Cc3ccc(F)c(C(=O)O)c3OB2O)c2cc(F)c(O)c(O)c2Cl)C1=O)Nc1cccnc1` [Example 267, (R)-3-((R)-2-(2-chloro-5-fluoro-3,4-dihydroxyphenyl)-2-(2-oxo-3-((2-(3-(pyridin-3-yl)ureido)ethyl)sulfonyl)imidazolidine-1-carboxamido)acetamido)-7-fluoro-2-hydroxy-3,4-dihydro-2H-benzo[e][1,2]oxaborinine-8-carboxylic acid] has an EC50 [1] of less than 10 µM, an IC50 [2] of less than 10 µM and an MIC [3] of 2 to 4 µg/mL (≈ 2.56 to 5.12 µM). The MIC [4] was 2 to 4 µg/mL (≈ 2.56 to 5.12 µM), the MIC [5] was 8 to 16 µg/mL (≈ 10.2 to 20.5 µM) and the MIC [6, 13] was 16 to 32 µg/mL (≈ 20.5 to 40.9 µM). The MIC [7, 14] was 1 to 2 µg/mL (≈ 1.28 to 2.56 µM), the MIC [8, 15] was 16 to 32 µg/mL (≈ 20.5 to 40.9 µM) and the MIC [9, 16] was 16 to 32 µg/mL (≈ 20.5 to 40.9 µM). For the same compound, the MIC [10, 17] was 4 to 8 µg/mL (≈ 5.12 to 10.2 µM), the MIC [11, 18] was greater than 64 µg/mL and the MIC [12, 19] was 4 to 8 µg/mL (≈ 5.12 to 10.2 µM).

With `O=C(O)c1c(F)ccc2c1OB(O)[C@@H](NC(=O)C(NC(=O)N1CCN(S(=O)(=O)CCCNC(=O)[C@@H]3CCCN3)C1=O)c1cc(F)c(O)c(O)c1Cl)C2` (stereo partly drawn) [Example 275, (3R)-3-(2-(2-chloro-5-fluoro-3,4-dihydroxyphenyl)-2-(2-oxo-3-((3-((S)-pyrrolidine-2-carboxamido)propyl)sulfonyl)imidazolidine-1-carboxamido)acetamido)-7-fluoro-2-hydroxy-3,4-dihydro-2H-benzo[e][1,2]oxaborinine-8-carboxylic acid] the EC50 [1] was 10 to 50 µM, the IC50 [2] was less than 10 µM and the MIC [3] was 8 to 16 µg/mL (≈ 10.4 to 20.7 µM). For the same compound, the MIC [4] was 8 to 16 µg/mL (≈ 10.4 to 20.7 µM), the MIC [5] was 8 to 16 µg/mL (≈ 10.4 to 20.7 µM) and the MIC [6, 13] was 16 to 32 µg/mL (≈ 20.7 to 41.4 µM). For the same compound, the MIC [7, 14] was 4 to 8 µg/mL (≈ 5.18 to 10.4 µM), the MIC [8, 15] was 16 to 32 µg/mL (≈ 20.7 to 41.4 µM) and the MIC [9, 16] was 16 to 32 µg/mL (≈ 20.7 to 41.4 µM). The MIC [10, 17] was 16 to 32 µg/mL (≈ 20.7 to 41.4 µM), the MIC [11, 18] was greater than 64 µg/mL and the MIC [12, 19] was 16 to 32 µg/mL (≈ 20.7 to 41.4 µM).

Work on `O=C(CN1CCN(C(=O)NC(C(=O)N[C@H]2Cc3ccc(F)c(C(=O)O)c3OB2O)c2cc(F)c(O)c(O)c2Cl)C(=O)C1=O)NCc1cccc(O)c1` (stereo partly drawn) [Example 237, (3R)-3-(2-(2-chloro-5-fluoro-3,4-dihydroxyphenyl)-2-(4-(2-((3-hydroxybenzyl)amino)-2-oxoethyl)-2,3-dioxopiperazine-1-carboxamido)acetamido)-7-fluoro-2-hydroxy-3,4-dihydro-2H-benzo[e][1,2]oxaborinine-8-carboxylic acid] yielded an EC50 [1] of less than 10 µM, an IC50 [2] of less than 10 µM and an MIC [3] of 8 to 16 µg/mL (≈ 10.7 to 21.5 µM). It also gave an MIC [4] of 2 to 4 µg/mL (≈ 2.68 to 5.36 µM), an MIC [5] of 8 to 16 µg/mL (≈ 10.7 to 21.5 µM) and an MIC [6, 20] of 16 to 32 µg/mL (≈ 21.5 to 42.9 µM). It also gave an MIC [7, 21] of 1 to 2 µg/mL (≈ 1.34 to 2.68 µM), an MIC [8, 22] of 16 to 32 µg/mL (≈ 21.5 to 42.9 µM) and an MIC [9, 23] of 4 to 8 µg/mL (≈ 5.36 to 10.7 µM). It also gave an MIC [10, 24] of 4 to 8 µg/mL (≈ 5.36 to 10.7 µM), an MIC [11, 25] greater than 64 µg/mL and an MIC [12, 26] of 16 to 32 µg/mL (≈ 21.5 to 42.9 µM).
